Entries after “also recorded” stand apart in the source; their conditions may differ.
How the values were obtained:
[1] = system: iceberg and Romaine lettuce midribs; assay: Visual (subjective) pink rib development in wounded, immersed lettuce midribs stored at 5° C.; format: in vivo; details: for reduction of pink rib severity: naringenin (1.8 mM) and serotonin, reason for not imaging
Experimental: Six preliminary experiments were performed to determine treatment conditions for the three final experiments reported here. It was determined that the method developed by Cantwell (2016) induced pink rib discoloration in lettuce midribs during storage at 5° C. via mimicking mechanical damage and was, therefore, selected for use in all preliminary and final tests. […] Concentrations evaluated were: L-cysteine (0.4, 0.8, 2.1, 4.1, 8.3 mM), naringenin (0.2, 0.4, 0.9, 1.8, 3.7 mM), serotonin (2.8, 5.7 mM), and melatonin (0.2, 0.4, 1.1, 2.2, 4.3 mM) (data not presented). […] Therefore, this study employed the one or two concentrations for each compound with the greatest potential efficacy in three independent tests, Test 1 to 3 (Table 1).
For Test 1, the evaluations for pink rib development, protein quantification, and enzyme activity were conducted with Romaine and iceberg lettuce heads (36 heads per type; cultivars unknown) purchased (February 2020) upon arrival at a local grocery store in Gainesville, FL, and immediately transported to the Postharvest Horticulture Laboratory at the University of Florida in Gainesville, FL. For Test 2, metabolite extraction and detection were conducted with commercially grown, harvested, and cooled Romaine (‘Tall Guzmaine’) and iceberg (‘Chosen’) lettuce (December 2020) grown in Belle Glade, FL. For Test 3, untargeted metabolomics was performed using commercially grown, harvested, and cooled Romaine (‘Manatee’) lettuce grown in Belle Glade, FL (April 2021). To keep the lettuce head samples cool while preventing freeze damage during transport, a 3- to 6-inch layer of crushed ice was placed on the bottom of each 114-L cooler. A piece of waxed, corrugated fiberboard was placed on top of the ice prior to packing with the lettuce samples for transport the same day to the Postharvest Horticulture Laboratory in Gainesville (approximately 4 h distant).
In all tests, experimental setup began immediately upon arrival to the laboratory. 90 outer leaves were randomly selected from 18 to 22 lettuce heads that met commercial and damage-free quality standards. A midrib segment (12.5 cm) was excised from the center of each leaf and excess leaf blade tissue was trimmed parallel to the midrib. This procedure was adapted from the wounding procedure of Cantwell (2016). Each midrib was then partially sliced transversally at 1.3-cm increments along the midrib. Midribs (n=15) were immediately immersed for 30 s in one of five treatment solutions: deionized water (wounded control), L-cysteine (4.1 mM), naringenin (1.8 mM) with 20% dimethyl sulfoxide (DMSO), serotonin (2.8 or 5.7 mM) or melatonin (4.3 mM) with 0.50% DMSO. Immediately following immersion, the midribs for each treatment were patted dry using paper towels and placed (n=5) in a breathable, high-density polyethylene bag (n=3) (Narrow Profile Produce Bags [14×18 inches] Model No. S-19156, Uline®, Pleasant Prairie, WI). Unwounded control midribs were stored in the same manner. To allow for direct comparison, each cut site on each midrib was assigned an initial discoloration value on day 1 based on the coloration of the rib. Samples were stored at 5° C. with 95-98% relative humidity (RH) for 5 d, simulating commercial storage.
All chemicals were of laboratory or reagent grade from Alfa Aesar (Thermo Fisher Scientific, Ward Hill, MA, USA) or Phyto Technology Laboratories (Shawnee Mission, KS, USA). L-cysteine (4.1 mM) solution was prepared by dissolving […] in 100 ml deionized water. Naringenin (1.8 mM) solution was prepared by dissolving […] in 20 mL of DMSO and diluting to a 100 mL volume with deionized water. A stock solution of serotonin (5.7 mM) was prepared by dissolving 100 mg of serotonin in 100 ml of deionized water; a second solution of serotonin (2.8 mM) was prepared by diluting the stock solution two-fold with deionized water. […]

PAL = details: naringenin; cited from earlier work
[2] = naringenin; in vitro for lettuce; cited from earlier work
fresh lettuce midribs = details: literature treatments; cited from earlier work
PPO = details: role: substrate; lettuce tissues; cited from earlier work
apple and pear discs = details: serotonin 1 mM, 4° C., cited from earlier work

With `O=C1C[C@@H](c2ccc(O)cc2)Oc2cc(O)cc(O)c21` [naringenin] the “pink rib severity (visual rating)” value ([1]; iceberg, naringenin 1.8 mM, 5 d at 5° C.) was “moderately severe (4=moderately severe)”, the “pink rib severity (visual rating)” value ([1]; iceberg, naringenin immersion up to 3.7 mM, 5 d at 5° C.) was “moderately severe (4=moderately severe)” and the “reduction of pink rib severity” value [1] was “unsuccessful reduction of pink rib severity; also recorded: equally unsuccessful”. The “effect on pink rib” value ([1]; naringenin up to 3.7 mM, 5 d at 5° C.) was “did not successfully reduce pink rib”, the “PAL activity and subsequent development of phenylpropanoids” value (PAL) was “represses PAL activity and subsequent development of phenylpropanoids” and the “antioxidant capacity (FRAP)” value [2] was “increase in antioxidant capacity”.
For `N[C@@H](CCC(=O)N[C@@H](CS)C(=O)NCC(=O)O)C(=O)O` [glutathione], the “effectiveness in reducing pink rib discoloration” value (fresh lettuce midribs) is listed as “slightly effective or completely ineffective”.
For `CCCCCCc1ccc(O)cc1O` [4-hexylresorcinol], the “effectiveness in reducing pink rib discoloration” value (fresh lettuce midribs) is listed as “slightly effective or completely ineffective”.
In the case of `C=C` [ethylene], the “effectiveness in reducing pink rib discoloration” value (fresh lettuce midribs) is given as “slightly effective or completely ineffective”.
For `O=C(/C=C/c1ccc(O)c(O)c1)O[C@@H]1C[C@](O)(C(=O)O)C[C@@H](O)[C@H]1O` [chlorogenic acid], the “specificity to PPO” value (PPO) is listed as “greatest specificity to PPO”.
For `O=C(O)CN(CCN(CC(=O)O)CC(=O)O)CC(=O)O` [ethylenediaminetetracetic acid (EDTA), ethylenediaminetetracetic acid], the “effectiveness in reducing pink rib discoloration” value (fresh lettuce midribs) is given as “slightly effective or completely ineffective”.
In the case of `O=C(O)CC(O)(CC(=O)O)C(=O)O` [citric acid], the “effectiveness in reducing pink rib discoloration” value (fresh lettuce midribs) is listed as “slightly effective or completely ineffective”.
For `[Cl-].[Na+]` [NaCl], the “effectiveness in reducing pink rib discoloration” value (fresh lettuce midribs) is listed as “slightly effective or completely ineffective”.
In the case of `O=C(O)c1ccc(O)cc1` [p-hydroxybenzoic acid], the “effectiveness in reducing pink rib discoloration” value (fresh lettuce midribs) is listed as “slightly effective or completely ineffective”.
With `NCCc1c[nH]c2ccc(O)cc12` [serotonin] the “pink rib severity (visual rating)” value ([1]; Romaine, serotonin 2.8 or 5.7 mM, 5 d at 5° C.) was “moderately severe (4=moderately severe)”, the “pink rib severity (visual rating)” value ([1]; iceberg, serotonin 2.8 or 5.7 mM, 5 d at 5° C.) was “moderate (3=moderate)” and the “reduction of pink rib severity” value [1] was “unsuccessful reduction of pink rib severity”. For the same molecule, the “effect on pink rib development” value ([1]; serotonin, iceberg and Romaine, 5 d at 5° C.) was “did not reduce pink rib development in either lettuce type”, the “extension of bright appearance” value (apple and pear discs; 30-min submersion) was “up to 6 months” and the “browning inhibition compared with ascorbic acid” value (apple and pear discs; 30 min) was “more effective than ascorbic acid”. The “duration of browning inhibition” value (apple and pear discs; 30 min) was “up to 24 h”.
In the case of `CC1=CC1` [1-methylcyclopropene], the “effectiveness in reducing pink rib discoloration” value (fresh lettuce midribs) is given as “slightly effective or completely ineffective”.

From patent US20260314597A1, “A NOVEL APPROACH TO INTERFERE IN THE PHENYLPROPANOID BIOSYNTHETIC PATHWAY TO REDUCE PINK-RIB DISORDER IN FRESH LETTUCE” (University of Florida Research Foundation, Inc., priority 2022, published 2026)
